Experiments:
Assay type in all cases: cell-based
[1] = system: T47D cells; assay: Live/Dead Cell staining of scaffold cultures after drug treatment; conditions: T47D-laden DBT-TMS and PLGA scaffolds; 1 μM
Procedure: Live/Dead Cell staining. The survival of the cells grown on the 3D scaffolds were assessed using the Live/Dead Cell Staining kit. The cell-carrying scaffolds at different time points or under different treatment conditions were collected and manually sectioned at 250-500 μm of thickness. The sections were washed twice with 1×PBS (37° C.), incubated in the staining solution (2 μM of calcein-AM and 4 μM of EhtD-III in 1×PBS) at RT for 45 minutes, and imaged using fluorescence microscopy. Calcein-AM stains live cells green (under EGFP filter), while EthD-III stains dead cells red (under Texas Red filter).
Drug screening. The T47D and BT474 breast cancer cells were used to test the efficacies of the two anticancer drugs, HT and Taxol, in 2D and 3D cultures. 2×10^3 cells/well and 1×10^5 cells/scaffold (in triplicates) were seeded on 2D surface and the 3D scaffolds, respectively, and cultured in 96-well plates for 7 days. The drugs at the final concentration of 1 μM were administered separately to the cultures on day 7, 9, 11, 13 of culture for 24 hours, and cell survival as well as proliferation status assessed on day 1, 8, 10, 12, 14, 21 using the CCK-8 reagent and the Live/Dead assay, respectively. After the measurement on day 14, a seven-day recovering period was included to evaluate the post-treatment proliferation potential of the cells. […]

[2] = system: BT474 breast cancer cells; assay: CCK-8 proliferation assay and drug screening, BT474 cells in 2D culture and on 3D scaffolds; conditions: 1 μM; for cell proliferation after administration of the drug: on day 7, 9, 11, 13, 3D and 2D cultures; for response of the cancer cells to the drug in cell-laden TMS cultures compared to the other 3D culture conditions: TMS vs collagen, IrECM, PLGA scaffolds
Procedure: (§1) Proliferation assay in 3D culture. The proliferation of the cells grown on the different scaffolds or treated with the different drugs was measured using the CCK-8 reagent at the time points indicated. Briefly, the cell-laden scaffolds (triplicates for each condition) were cultured in 96-well plates. CCK-8 solution was added at a 1:10 dilution into the cultures. The colorimetric absorbance of the supernatants of the cultures that reflects the cell proliferation rate was measured at 490 nm using a Synergy 2 microplate reader (BioTek) after 4 hours of incubation (37° C., 5% CO2). Error bars represent standard deviations (s.d.) of the means of three independent experiments.
(§2) Drug screening. The T47D and BT474 breast cancer cells were used to test the efficacies of the two anticancer drugs, HT and Taxol, in 2D and 3D cultures. 2×10^3 cells/well and 1×10^5 cells/scaffold (in triplicates) were seeded on 2D surface and the 3D scaffolds, respectively, and cultured in 96-well plates for 7 days. The drugs at the final concentration of 1 μM were administered separately to the cultures on day 7, 9, 11, 13 of culture for 24 hours, and cell survival as well as proliferation status assessed on day 1, 8, 10, 12, 14, 21 using the CCK-8 reagent and the Live/Dead assay, respectively. After the measurement on day 14, a seven-day recovering period was included to evaluate the post-treatment proliferation potential of the cells. Three independent experiments were performed for statistical significance.

[3] = system: T47D breast cancer cells; assay: CCK-8 proliferation assay and drug screening, T47D cells in 2D culture and on 3D scaffolds; conditions: 1 μM; for cell proliferation after administration of the drug: on day 7, 9, 11, 13, 3D and 2D cultures; for response of the cancer cells to the drug in cell-laden TMS cultures compared to the other 3D culture conditions: TMS vs collagen, IrECM, PLGA scaffolds
Procedure: as §1, §2

SMILES | cell proliferation and clustering over the period of treatment (Live/Dead staining) [1] | cell proliferation after administration of the drug [2] | response of the cancer cells to the drug in cell-laden TMS cultures compared to the other 3D culture conditions [2] | cell proliferation after administration of the drug [3] | response of the cancer cells to the drug in cell-laden TMS cultures compared to the other 3D culture conditions [3]
CC(=O)O[C@H]1C(=O)[C@@]2(C)[C@H]([C@H](OC(=O)c3ccccc3)[C@]3(O)C[C@H](OC(=O)[C@H](O)[C@@H](NC(=O)c4ccccc4)c4ccccc4)C(C)=C1C3(C)C)[C@]1(OC(C)=O)CO[C@@H]1C[C@@H]2O [Taxol, Paclitaxel] | markedly attenuated | time-dependently inhibited cell proliferation | lower response | time-dependently inhibited cell proliferation | lower response
CC/C(=C(\c1ccc(O)cc1)c1ccc(OCCN(C)C)cc1)c1ccccc1 [HT, (Z)-4-Hydroxytamoxifen] | markedly attenuated | time-dependently inhibited cell proliferation | lower response | time-dependently inhibited cell proliferation | lower response
